Assay type in all cases: cell-based
Experiment [1] deals with T1, Metabotropic glutamate receptor 5 (Homo sapiens, UniProt P41594). Kind of experiment: Negative allosteric modulation of human mGlu5 receptor expressed in HEK293 cells assessed as inhibition of L-glutamate-induced activity after 1 hr by FLIPR assay.
Target sequence in this assay (P41594 whole entry): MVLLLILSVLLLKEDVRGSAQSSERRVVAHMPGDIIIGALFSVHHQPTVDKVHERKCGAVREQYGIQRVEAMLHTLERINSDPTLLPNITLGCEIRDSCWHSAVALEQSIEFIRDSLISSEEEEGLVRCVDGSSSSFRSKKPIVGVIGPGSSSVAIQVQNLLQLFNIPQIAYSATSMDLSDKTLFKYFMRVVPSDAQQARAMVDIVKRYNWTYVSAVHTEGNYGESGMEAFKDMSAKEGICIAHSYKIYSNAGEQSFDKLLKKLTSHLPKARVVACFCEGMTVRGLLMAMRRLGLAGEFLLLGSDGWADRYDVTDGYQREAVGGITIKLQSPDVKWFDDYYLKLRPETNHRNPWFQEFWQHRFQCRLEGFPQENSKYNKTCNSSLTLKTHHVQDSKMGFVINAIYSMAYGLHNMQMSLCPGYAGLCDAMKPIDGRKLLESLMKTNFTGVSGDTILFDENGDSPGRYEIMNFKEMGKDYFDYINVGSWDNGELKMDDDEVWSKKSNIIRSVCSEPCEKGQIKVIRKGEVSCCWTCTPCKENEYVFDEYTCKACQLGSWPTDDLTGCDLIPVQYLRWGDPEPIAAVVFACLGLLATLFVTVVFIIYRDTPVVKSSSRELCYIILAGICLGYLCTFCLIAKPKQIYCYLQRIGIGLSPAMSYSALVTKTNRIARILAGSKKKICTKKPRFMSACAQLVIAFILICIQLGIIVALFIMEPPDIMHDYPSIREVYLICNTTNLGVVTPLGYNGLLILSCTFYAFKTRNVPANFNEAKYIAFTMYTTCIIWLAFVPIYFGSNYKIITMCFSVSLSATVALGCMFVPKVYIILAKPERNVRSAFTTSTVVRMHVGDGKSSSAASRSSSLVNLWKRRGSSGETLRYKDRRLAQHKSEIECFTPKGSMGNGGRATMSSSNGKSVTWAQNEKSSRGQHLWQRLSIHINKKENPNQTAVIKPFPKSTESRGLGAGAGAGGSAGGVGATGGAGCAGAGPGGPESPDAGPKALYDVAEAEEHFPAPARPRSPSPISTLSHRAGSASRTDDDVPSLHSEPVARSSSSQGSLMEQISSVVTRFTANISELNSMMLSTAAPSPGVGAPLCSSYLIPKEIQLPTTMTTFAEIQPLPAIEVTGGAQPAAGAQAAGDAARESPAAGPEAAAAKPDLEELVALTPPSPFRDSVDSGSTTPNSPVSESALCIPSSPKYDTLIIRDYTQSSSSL
Experiment [2] concerns the target T1, Metabotropic glutamate receptor 5. Kind of experiment: Positive allosteric modulation of human mGlu5 receptor expressed in HEK293 cells assessed as potentiation of L-glutamate-induced activity after 1 hr by FLIPR assay relative to control.
Target sequence in this assay (P41594 21-1212 limits assumed): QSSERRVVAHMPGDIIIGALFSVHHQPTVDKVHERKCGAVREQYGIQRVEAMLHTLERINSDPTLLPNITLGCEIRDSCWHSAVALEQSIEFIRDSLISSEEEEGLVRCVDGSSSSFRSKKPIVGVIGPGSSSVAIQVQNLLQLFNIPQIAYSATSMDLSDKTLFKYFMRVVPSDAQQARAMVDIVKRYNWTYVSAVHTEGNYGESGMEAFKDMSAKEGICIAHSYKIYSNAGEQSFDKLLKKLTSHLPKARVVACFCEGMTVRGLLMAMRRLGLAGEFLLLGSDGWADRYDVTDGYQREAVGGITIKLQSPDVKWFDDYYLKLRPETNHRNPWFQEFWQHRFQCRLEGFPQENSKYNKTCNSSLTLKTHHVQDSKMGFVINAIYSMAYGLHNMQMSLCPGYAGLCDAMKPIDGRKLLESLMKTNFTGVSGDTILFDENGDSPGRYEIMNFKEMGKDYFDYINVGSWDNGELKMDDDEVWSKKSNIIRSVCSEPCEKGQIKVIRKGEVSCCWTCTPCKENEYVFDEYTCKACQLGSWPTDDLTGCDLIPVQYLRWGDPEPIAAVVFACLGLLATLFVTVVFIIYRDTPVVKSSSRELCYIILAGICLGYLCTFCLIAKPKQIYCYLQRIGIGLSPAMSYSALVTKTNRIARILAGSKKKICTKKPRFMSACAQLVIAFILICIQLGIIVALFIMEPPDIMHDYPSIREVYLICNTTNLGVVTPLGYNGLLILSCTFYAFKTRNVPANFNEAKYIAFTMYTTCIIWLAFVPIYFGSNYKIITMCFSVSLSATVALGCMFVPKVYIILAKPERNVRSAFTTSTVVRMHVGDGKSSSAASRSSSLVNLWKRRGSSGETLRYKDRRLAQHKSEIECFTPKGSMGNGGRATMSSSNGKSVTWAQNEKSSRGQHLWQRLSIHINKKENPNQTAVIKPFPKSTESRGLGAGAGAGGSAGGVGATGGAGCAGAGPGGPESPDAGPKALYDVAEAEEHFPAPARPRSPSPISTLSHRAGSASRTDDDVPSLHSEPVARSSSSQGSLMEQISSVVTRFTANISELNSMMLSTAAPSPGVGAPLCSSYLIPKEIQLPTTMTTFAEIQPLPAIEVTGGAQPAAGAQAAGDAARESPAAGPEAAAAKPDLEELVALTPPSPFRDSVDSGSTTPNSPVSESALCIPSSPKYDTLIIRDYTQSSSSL
Experiment [3] has the same target. Kind of experiment: Positive allosteric modulation of human mGlu5 receptor expressed in HEK293 cells assessed as potentiation of L-glutamate-induced activity after 1 hr by FLIPR assay.
Target sequence in this assay (P41594 whole entry): as the sequence (P41594 whole entry) above
Experiment [4] shares this target. Kind of experiment: Negative allosteric modulation of human mGlu5 receptor expressed in HEK293 cells assessed as inhibition of L-glutamate-induced activity after 1 hr by FLIPR assay relative to control. Also noted: concentration or dose not given beside the values. The conditions noted are these: concentration not given here.
Target sequence in this assay (P41594 21-1212 limits assumed): as the sequence (P41594 21-1212 limits assumed) above

As for `O=S(=O)(N1CCCCC1)N1Cc2nc(C#Cc3ccccc3)sc2C1`, the IC50 in experiment [1] is above 10000 nM. For the same compound, in experiment [2], the Emax came out at 89%. Further, the EC50 in experiment [3] was 250 nM.
For the compound `O=C(c1cccc(Cl)c1)N1CCc2nc(C#Cc3ccccc3)sc2C1`, the inhibition in experiment [4] is 26%. Further, the IC50 in experiment [1] was above 10000 nM. In experiment [2], the Emax was 170%. Further, the EC50 in experiment [3] was found to be 8.7 nM.
For `CC(C)S(=O)(=O)N1CCc2nc(C#Cc3ccccc3)sc2C1`, the inhibition in experiment [4] came out at 75%. The IC50 in experiment [1] amounted to 11 nM. The Emax in experiment [2] is -4%. Also, in experiment [3], the EC50 was above 10000 nM.
The corresponding values for `O=C(C1CCCO1)N1CCc2nc(C#Cc3ccccc3)sc2C1` (stereo unspecified) are -1%, above 10000 nM, 89% and 790 nM.
On the same counts, the results for `Fc1cccc(C#Cc2nc3c(s2)CN(C2CCOC2)CC3)c1` (stereo unspecified) are 91%, 400 nM, -47% and above 10000 nM.
On the same counts, the results for `CC(C)S(=O)(=O)N1Cc2nc(C#Cc3ccccc3)sc2C1` are 74%, 140 nM, -35% and above 10000 nM.
Take `CC1CC1C(=O)N1CCc2nc(C#Cc3ccccc3)sc2C1` (stereo unspecified): in experiment [4], the inhibition turned out to be 6.3%. Moreover, the IC50 in experiment [1] was above 10000 nM. In addition, the Emax in experiment [2] came to 42%. Further, the EC50 in experiment [3] was determined as 9.4 nM.
On the same counts, the results for `O=C(C1CC12CCC2)N1CCc2nc(C#Cc3ccccc3)sc2C1` (stereo unspecified) are 10%, above 10000 nM, 95% and 3.9 nM.
The corresponding values for `O=S(=O)(C1CC1)N1CCc2nc(C#Cc3ccccc3)sc2C1` are 87%, 34 nM, -12% and above 10000 nM.
On the same counts, the results for `O=C(C1CCC1)N1CCc2nc(C#Cc3ccccc3)sc2C1` are 81%, 370 nM, 3% and above 10000 nM.
`O=C(N1CCC(F)(F)CC1)N1CCc2nc(C#Cc3ccccc3)sc2C1`: the inhibition in experiment [4] worked out at 3%. In addition, the IC50 in experiment [1] was above 10000 nM. Besides, in experiment [2], the Emax stood at 100%. Further, the EC50 in experiment [3] came out at 72 nM.
For the compound `O=S(=O)(C1CCCCC1)N1Cc2nc(C#Cc3ccccc3)sc2C1`, the IC50 in experiment [1] is above 10000 nM. Also, the Emax in experiment [2] is 110%. Further, the concentration for a half-maximal effect (EC50) in experiment [3] is 150 nM.
As for `COc1cccc(C(=O)N2CCc3nc(C#Cc4ccccc4)sc3C2)c1`, the inhibition in experiment [4] was determined as 6.7%. In addition, the IC50 in experiment [1] is above 10000 nM. Besides, the Emax in experiment [2] was 150%. Also, in experiment [3], the EC50 turned out to be 29 nM.
The corresponding values for `O=C(C1CCCCO1)N1CCc2nc(C#Cc3ccccc3)sc2C1` (stereo unspecified) are 35%, above 10000 nM, 100% and 320 nM.
Regarding `Cc1cccc(C(=O)N2CCc3nc(C#Cc4ccccc4)sc3C2)c1`, the IC50 in experiment [1] was above 10000 nM. In addition, the Emax in experiment [2] is 170%. In experiment [3], the EC50 was determined as 99 nM.
As for `O=C1NCCc2nc(C#Cc3ccccc3F)sc21`, the IC50 in experiment [1] was above 10000 nM. For the same compound, in experiment [2], the Emax came out at 320%. In addition, the EC50 in experiment [3] was determined as 1500 nM.
The corresponding values for `O=C1NCCc2nc(C#Cc3cccc(Cl)c3)sc21` are above 10000 nM, 120% and 2500 nM.
Regarding `Cc1nc(C(=O)N2CCc3nc(C#Cc4ccccc4)sc3C2)cs1`, the inhibition in experiment [4] turned out to be 3.7%. The IC50 in experiment [1] was above 10000 nM. Besides, the Emax in experiment [2] was 110%. Also, in experiment [3], the EC50 worked out at 220 nM.
The corresponding values for `O=C(C1CC(F)(F)C1)N1CCc2nc(C#Cc3ccc(F)cc3)sc2C1` are 13%, above 10000 nM, 73% and 150 nM.
The corresponding values for `CN1CCc2nc(C#Cc3cccc(F)c3)sc2C1` are 6%, above 10000 nM, -8% and above 10000 nM.
For `N#Cc1cccc(C(=O)N2CCc3nc(C#Cc4ccccc4)sc3C2)c1`, in experiment [4], the inhibition was 16%. For the same compound, the IC50 in experiment [1] was above 10000 nM. Moreover, the Emax in experiment [2] came out at 150%. For the same compound, the EC50 in experiment [3] was determined as 71 nM.
As for `O=C(c1cccc(F)c1)N1CCc2nc(C#Cc3ccccc3)sc2C1`, in experiment [1], the IC50 was above 10000 nM. Further, the Emax in experiment [2] was 160%. Also, in experiment [3], the EC50 was 30 nM.
For the compound `O=C(C1CC(F)(F)C1)N1CCc2nc(C#Cc3cccc(F)c3)sc2C1`, the inhibition in experiment [4] stood at 45%. Besides, in experiment [1], the IC50 was above 10000 nM. In experiment [2], the Emax came to 72%. Also, in experiment [3], the EC50 stood at 2.5 nM.
For the compound `CN1CCC(C(=O)N2CCc3nc(C#Cc4ccccc4)sc3C2)CC1`, the IC50 in experiment [1] was above 10000 nM. Also, the Emax in experiment [2] turned out to be 70%. The EC50 in experiment [3] is 1200 nM.
Turning to `O=C(C1CCOC1)N1CCc2nc(C#Cc3ccccc3)sc2C1` (stereo unspecified), the inhibition in experiment [4] came out at 45%. Moreover, the IC50 in experiment [1] was above 10000 nM. Besides, in experiment [2], the Emax was 96%. In addition, the EC50 in experiment [3] was 130 nM.
The corresponding values for `O=C(N1CCC(F)CC1)N1CCc2nc(C#Cc3ccccc3)sc2C1` are 15%, above 10000 nM, 100% and 74 nM.
For the compound `Cc1cccc(C#Cc2nc3c(s2)C(=O)NCC3)c1`, the IC50 in experiment [1] is above 10000 nM. Besides, in experiment [2], the Emax was 50%. Also, in experiment [3], the EC50 was above 10000 nM.
As to `CCN1CCc2nc(C#Cc3cccc(F)c3)sc2C1`, the inhibition in experiment [4] stood at 87%. The IC50 in experiment [1] was 72 nM. In addition, in experiment [2], the Emax was -2%. In addition, in experiment [3], the EC50 is above 10000 nM.
Consider `O=C1NCCc2nc(C#Cc3ccc(F)cc3)sc21`, for which the IC50 in experiment [1] is above 10000 nM. The Emax in experiment [2] worked out at 310%. In addition, the EC50 in experiment [3] worked out at 5200 nM.
As for `CC(=O)N1CCc2nc(C#Cc3ccccc3)sc2C1`, the inhibition in experiment [4] was determined as 79%. For the same compound, the IC50 in experiment [1] was 90 nM. For the same compound, in experiment [2], the Emax was -18%. The EC50 in experiment [3] was above 10000 nM.
Consider `O=C1NCCc2nc(C#Cc3cccc(F)c3)sc21`, for which, in experiment [1], the IC50 was above 10000 nM. In addition, the Emax in experiment [2] worked out at 310%. Moreover, in experiment [3], the EC50 was 290 nM.
With `O=S(=O)(N1CCCC1)N1CCc2nc(C#Cc3ccccc3)sc2C1`, the inhibition in experiment [4] amounted to 78%. Also, the IC50 in experiment [1] came out at 36 nM. In addition, the Emax in experiment [2] was -9%. The EC50 in experiment [3] is above 10000 nM.
`O=C1c2sc(C#Cc3ccccc3)nc2CN1C1CCCC1`: the IC50 in experiment [1] is above 10000 nM. The Emax in experiment [2] worked out at 150%. The EC50 in experiment [3] stood at 2.5 nM.
For the compound `Fc1cccc(C#Cc2nc3c(s2)CN(C2CCC2)CC3)c1`, the inhibition in experiment [4] is 91%. In experiment [1], the IC50 was 200 nM. The Emax in experiment [2] was -40%. In experiment [3], the EC50 was above 10000 nM.
The corresponding values for `O=C(N1CCc2nc(C#Cc3ccccc3)sc2C1)N1CC(F)C1` are 9%, above 10000 nM, 27% and above 10000 nM.
On the same counts, the results for `CC1CC(C(=O)N2CCc3nc(C#Cc4cccc(F)c4)sc3C2)C1` (stereo unspecified) are 19%, above 10000 nM, 87% and 17 nM.
On the same counts, the results for `C(#Cc1nc2c(s1)CN(C1CCCCC1)CC2)c1ccccc1` are 1%, above 10000 nM, 19% and above 10000 nM.
Regarding `O=C(CC1CCOCC1)N1CCc2nc(C#Cc3ccccc3)sc2C1`, the inhibition in experiment [4] was -2%. Further, in experiment [1], the IC50 was above 10000 nM. Also, the Emax in experiment [2] was determined as 45%. Moreover, the EC50 in experiment [3] was 470 nM.
On the same counts, the results for `O=C(N1CCc2nc(C#Cc3ccccc3)sc2C1)N1CC(F)(F)C1` are -9%, above 10000 nM, 94% and 26 nM.
On the same counts, the results for `CC1CC(C(=O)N2CCc3nc(C#Cc4ccccc4)sc3C2)C1` (stereo unspecified) are 13%, above 10000 nM, 120% and 81 nM.
The corresponding values for `CCN1CCc2nc(C#Cc3ccccc3)sc2C1` are 51%, 1200 nM, -6% and above 10000 nM.
For the compound `O=C(C1CCC(F)(F)CC1)N1CCc2nc(C#Cc3ccccc3)sc2C1`, the inhibition in experiment [4] was determined as 10%. The IC50 in experiment [1] was above 10000 nM. The Emax in experiment [2] is 190%. In addition, the EC50 in experiment [3] stood at 70 nM.
Regarding `O=C(C1CCCCC1)N1CCc2nc(C#Cc3ccccc3)sc2C1`, the IC50 in experiment [1] is above 10000 nM. In experiment [2], the Emax was found to be 153%. For the same compound, the EC50 in experiment [3] was 167 nM.
On the same counts, the results for `O=C(C1CCOCC1)N1CCc2nc(C#Cc3ccccc3)sc2C1` are above 10000 nM, 120% and 290 nM.
With `O=C(N1CCCCC1)N1CCc2nc(C#Cc3ccccc3)sc2C1`, the IC50 in experiment [1] was above 10000 nM. For the same compound, the Emax in experiment [2] amounted to 120%. Besides, in experiment [3], the EC50 was found to be 75 nM.
The corresponding values for `O=C1NCCc2nc(C#Cc3ccccc3)sc21` are above 10000 nM, 243% and 112 nM.
On the same counts, the results for `COc1ccccc1C#Cc1nc2c(s1)C(=O)NCC2` are above 10000 nM, 44% and above 10000 nM.
The corresponding values for `CC(C)CCN1CCc2nc(C#Cc3ccccc3)sc2C1` are above 10000 nM, 180% and 100 nM.
Turning to `O=C1NCCc2nc(C#Cc3cccnc3)sc21`, the IC50 in experiment [1] was above 10000 nM. In experiment [2], the Emax came to 120%. In addition, in experiment [3], the EC50 was found to be 51 nM.
On the same counts, the results for `Cc1cc(C(=O)N2CCc3nc(C#Cc4ccccc4)sc3C2)no1` are above 10000 nM, 71% and 1600 nM.
